From patent US20160158200A1, “Combinations of Hepatitis C Virus Inhibitors” (priority 2013, published 2016)

How the values were obtained:
[1] = system: HCV genotype 1a Y93H variant with tyrosine 93 changed to histidine in the NS5A protein; assay: microbe, parasite or virus in culture; assay type: cell-based; settings: genotype 1a Y93H replicon; test compound titrated with compound N47 fixed at 200 nM versus singly
Protocol: Combinations can be examined for synergistic activity using a variety of putative NS5A-targeting compounds and a variety of test compounds. […] The test compound can be chosen from compounds exemplified below, which were prepared by methods known in the art, or from others disclosed in the literature.
Similarly, BMS-790052 can be tested singly and in combination with a fixed amount of compound N47 in the HCV replicon cell based assay consisting of the genotype 1a Y93H variant with tyrosine 93 changed to histidine in the NS5A protein.

[2] = system: HCV genotype 1a L31V variant with leucine 31 changed to valine in the NS5A protein; assay: microbe, parasite or virus in culture; assay type: cell-based; settings: genotype 1a L31V replicon; test compound titrated with compound N47 fixed at 200 nM versus singly

SMILES	Fold-Synergistic G-1a (Y93H) [1] [fold]	Fold-Synergistic G-1a (L31V) [2] [fold]
COc1cccc2c(C(=O)N3CCC[C@H]3C(=O)Nc3ccc(-c4ncc(-c5ccc6nc([C@@H]7CCCN7C(=O)c7nc(Cl)cc8c(OC)cccc78)[nH]c6c5)o4)cc3)nc(Cl)cc12	<10	<10
COC(=O)N[C@H](C(=O)N1[C@@H]2C[C@@H]2C[C@H]1c1nc(Cl)c(-c2ccc(-c3ccc(-c4[nH]c([C@@H]5C[C@H]6C[C@H]6N5C(=O)[C@@H](NC(=O)OC)C(C)C)nc4Cl)cc3)cc2)[nH]1)C(C)C	<10	>10
COC(=O)N[C@H](C(=O)N1[C@@H](C)CC[C@H]1c1ncc(-c2ccc(-c3ccc4cc(-c5cnc([C@@H]6CC[C@H](C)N6C(=O)[C@@H](NC(=O)OC)C(C)C)[nH]5)ccc4c3)cc2)[nH]1)C(C)C	>100	<10
COC(=O)N[C@H](C(=O)N1[C@@H]2C[C@@H]2C[C@H]1c1ncc(C#Cc2ccc3cc(-c4cnc([C@@H]5C[C@H]6C[C@H]6N5C(=O)[C@@H](NC(=O)OC)C(C)C)[nH]4)ccc3c2)[nH]1)C(C)C	>100	>100
COC(=O)N[C@H](C(=O)N1CCC[C@H]1c1nc2c([nH]1)CCc1cc(C#Cc3ccc4[nH]c([C@@H]5CCCN5C(=O)[C@@H](NC(=O)OC)C(C)C)nc4c3)ccc1-2)C(C)C	>100	>100
COC(=O)N[C@H](C(=O)N1CCC[C@H]1c1nc2cc(C#Cc3ccc4[nH]c([C@@H]5CCCN5C(=O)[C@@H](NC(=O)OC)C(C)C)nc4c3)ccc2[nH]1)C(C)C	>10	<10
COC(=O)N[C@H](C(=O)N1[C@H]2C[C@@]2(C)C[C@H]1c1ncc(-c2ccc(-c3ccc(-c4cnc([C@@H]5C[C@]6(C)C[C@@H]6N5C(=O)[C@@H](NC(=O)OC)C(C)C)[nH]4)cc3)cc2)[nH]1)C(C)C	>100	>100
COC(=O)N[C@H](C(=O)N1CCC[C@H]1c1nc2ccc(-c3cnc(-c4cccc5nc([C@@H]6CCCN6C(=O)[C@@H](NC(=O)OC)C(C)C)[nH]c45)o3)cc2[nH]1)C(C)C	>100	<10
COC(=O)N[C@H](C(=O)N1[C@@H](C)CC[C@H]1c1ncc(-c2ccc3c(c2)Cc2cc(-c4cnc([C@@H]5CC[C@H](C)N5C(=O)[C@@H](NC(=O)OC)C(C)C)[nH]4)ccc2-3)[nH]1)C(C)C	>100	>100
COC(=O)N[C@H](C(=O)N1CCC[C@H]1C(=O)Nc1cc(-c2ncc(-c3ccc4nc([C@@H]5CCCN5C(=O)[C@@H](c5ccccc5)N(C)C)[nH]c4c3)o2)ccc1C)C(C)C	<10	<10
COC(=O)N[C@H](C(=O)N1CCC[C@H]1c1ncc(-c2ccc(-c3ccc4cc(-c5cnc([C@@H]6CCCN6C(=O)[C@@H](NC(=O)OC)C(C)C)[nH]5)ccc4c3)cc2)[nH]1)C(C)C	>10	<10
O=C(Cc1ccccc1)N1CCC[C@H]1c1nc2ccc(-c3cnc([C@@H]4CCCN4C(=O)Cc4ccccc4)o3)cc2[nH]1	<10	<10
COC(=O)N[C@H](C(=O)N1[C@@H]2C[C@@H]2C[C@H]1c1nc2ccc3cc(C#CC#Cc4ccc5c(ccc6nc([C@@H]7C[C@H]8C[C@H]8N7C(=O)[C@@H](NC(=O)OC)C(C)C)[nH]c65)c4)ccc3c2[nH]1)C(C)C	>10	>10
COc1ccc(-c2ccc(-c3cnc([C@@H]4CCCN4C(=O)[C@@H](c4ccccc4)N(C)C)[nH]3)cc2)cc1-c1cnc([C@@H]2CCCN2C(=O)[C@@H](c2ccccc2)N(C)C)[nH]1	<10	<10
COC(=O)N[C@H](C(=O)N1[C@@H]2C[C@@H]2C[C@H]1c1nc(-c2ccc3oc(-c4ccc(-c5cnc([C@@H]6C[C@H]7C[C@H]7N6C(=O)[C@@H](NC(=O)OC)C6CCOCC6)[nH]5)cc4)cc3c2)c[nH]1)C1CCOCC1	<10	<10
COC(=O)N[C@H](C(=O)N1CCC[C@H]1c1ncc(-c2ccc(-c3ccc4c(c3)CCCc3[nH]c([C@@H]5CCCN5C(=O)[C@@H](NC(=O)OC)C(C)C)nc3-4)cc2)[nH]1)C(C)C	>100	>100

SMILES	Fold-Synergistic G-1a (Y93H) [1] [fold]	Fold-Synergistic G-1a (L31V) [2] [fold]
COC(=O)N[C@H]1CCC[C@H]2CC[C@@H](c3nc(-c4ccc(-c5ccc(-c6c[nH]c([C@@H]7CC[C@@H]8CCC[C@H](NC(=O)OC)C(=O)N87)n6)cc5)cc4)c[nH]3)N2C1=O	<10	<10
COC(=O)N[C@H](C(=O)N1[C@@H]2C[C@@H]2C[C@H]1c1nc(-c2ccn3nc(-c4ccc(-c5cnc([C@@H]6C[C@H]7C[C@H]7N6C(=O)[C@@H](NC(=O)OC)C(C)C)[nH]5)cc4)cc3c2)c[nH]1)C(C)C	>100	>100
COC(=O)N[C@H](C(=O)N1CCC[C@H]1c1ncc(-c2ccc(-c3ccc4cc(-c5cnc([C@@H]6CCCN6C(=O)[C@@H](NC(=O)OC)C6CCOCC6)[nH]5)ccc4c3)cc2)[nH]1)C1CCOCC1	>10	<10
COC(=O)N[C@H](C(=O)N1C[C@H](C)CC1c1nc(-c2ccc(-c3ccc(-c4cnc([C@@H]5C[C@@H](C)CN5C(=O)[C@@H](NC(=O)OC)C(C)C)[nH]4)cc3)cc2)c[nH]1)C(C)C (some centres unmarked)	>100	>100
COC(=O)N[C@H](C(=O)N1CCC[C@H]1c1ncc(C#Cc2ccc3cc(C#Cc4cnc([C@@H]5CCCN5C(=O)[C@@H](NC(=O)OC)C(C)C)[nH]4)ccc3c2)[nH]1)C(C)C	<10	>10
Cc1nc2cccc(-c3ncc(-c4ccc5nc([C@@H]6CCCN6C(=O)[C@@H](c6ccccc6)N(C)C)[nH]c5c4)o3)c2[nH]1	<10	<10
COc1cccc2c(C(=O)N3CCC[C@H]3c3nc4ccc(-c5cnc(-c6cccc(O)c6)o5)cc4[nH]3)nc(Cl)cc12	<10	<10
O=C(Nc1ccc(C#Cc2ccc(NC(=O)[C@@H]3CCCN3C(=O)Cc3ccccc3)cn2)nc1)[C@@H]1CCCN1C(=O)Cc1ccccc1	<10	<10
COC(=O)N[C@@H](C(=O)N1CCC[C@H]1c1ncc(C#CC#Cc2cnc([C@@H]3CCCN3C(=O)[C@H](NC(=O)OC)c3ccccc3)[nH]2)[nH]1)c1ccccc1	<10	<10
COC(=O)N[C@H](C(=O)N1C2CC2C[C@H]1c1nc2ccc3cc(C#Cc4ccc5c(ccc6nc([C@@H]7C[C@H]8C[C@H]8N7C(=O)[C@@H](NC(=O)OC)C(C)C)[nH]c65)c4)ccc3c2[nH]1)C(C)C (some centres unmarked)	>100	<10
COC(=O)N[C@H](C(=O)N1CCC[C@H]1c1nc2cc(-c3ccc4cc(-c5cnc6[nH]c([C@@H]7CCCN7C(=O)[C@@H](NC(=O)OC)C(C)C)nc6c5)ccc4c3)cnc2[nH]1)C(C)C	>10	>10
COC(=O)N[C@H](C(=O)N1C2CC2CC[C@H]1c1ncc(-c2ccc(-c3ccc(-c4cnc([C@@H]5CCC6CC6N5C(=O)[C@@H](NC(=O)OC)C(C)C)[nH]4)cc3)cc2)[nH]1)C(C)C (some centres unmarked) [drawing 2291]	>100	>100
COC(=O)N[C@H](C(=O)N1[C@@H]2C[C@@H]2C[C@H]1c1nc2cc(Oc3cccc(-c4ccc5[nH]c([C@@H]6C[C@H]7C[C@H]7N6C(=O)[C@@H](NC(=O)OC)C(C)C)nc5c4)c3)ccc2[nH]1)C(C)C	>10	>10
CCN(CC)[C@@H](C(=O)N1CCC[C@H]1c1nc2c([nH]1)CCCc1cc(-c3ccc4nc([C@@H]5CCCN5C(=O)[C@@H](c5ccccc5)N(CC)CC)[nH]c4c3)ccc1-2)c1ccccc1	<10	<10
COC(=O)N[C@H](C(=O)N1CCC[C@H]1c1nc2ccc3cc(-c4ccc5c(ccc6nc([C@@H]7CCCN7C(=O)[C@@H](NC(=O)OC)C(C)C)[nH]c65)c4)ccc3c2[nH]1)C(C)C	>100	>100
